For assay [1], the target named is T1, purified recombinantly expressed human SSAO (Homo sapiens, UniProt Q16853).
T1 construct: made in house
T1 sequence (Q16853 1-763): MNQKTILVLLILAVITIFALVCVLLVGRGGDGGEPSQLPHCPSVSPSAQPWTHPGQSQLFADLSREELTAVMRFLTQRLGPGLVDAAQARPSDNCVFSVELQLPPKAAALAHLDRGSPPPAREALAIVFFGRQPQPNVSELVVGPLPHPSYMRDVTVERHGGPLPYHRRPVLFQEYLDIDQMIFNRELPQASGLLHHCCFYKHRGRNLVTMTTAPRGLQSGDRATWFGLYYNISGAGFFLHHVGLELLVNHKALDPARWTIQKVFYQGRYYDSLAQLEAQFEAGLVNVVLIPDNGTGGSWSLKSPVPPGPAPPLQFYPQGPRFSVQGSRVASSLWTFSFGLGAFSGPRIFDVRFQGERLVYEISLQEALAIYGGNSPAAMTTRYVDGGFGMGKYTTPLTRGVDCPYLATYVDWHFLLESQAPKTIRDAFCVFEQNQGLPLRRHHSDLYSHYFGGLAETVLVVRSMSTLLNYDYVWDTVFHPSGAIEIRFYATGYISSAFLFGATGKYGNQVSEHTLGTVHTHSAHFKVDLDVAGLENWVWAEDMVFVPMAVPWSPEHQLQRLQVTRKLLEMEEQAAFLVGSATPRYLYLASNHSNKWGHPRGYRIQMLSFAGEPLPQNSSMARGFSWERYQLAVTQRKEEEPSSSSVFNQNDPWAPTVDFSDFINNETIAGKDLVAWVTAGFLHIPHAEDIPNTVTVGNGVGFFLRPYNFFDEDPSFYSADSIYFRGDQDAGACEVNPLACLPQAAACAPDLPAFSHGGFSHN
The assay is described as follows: SSAO enzyme inhibition assay (benzylamine substrate; hydrogen peroxide/HRP-coupled or 14C aldehyde detection). In kind it is biochemical. Conditions: SSAO inhibitory activity, RT. The gist of the method:
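IC50 values came from a four-parameter logistic fit of % signal decrease versus DMSO control, with no-enzyme background subtracted. Two read-outs were used with human recombinant SSAO after ~15 min compound pre-incubation at RT. In the H2O2/HRP-Amplex read-out, enzyme was 1 ug/ml and benzylamine 100 uM (pH 7.4 phosphate), with resorufin fluorescence followed 1-2 h. In the 14C-benzaldehyde read-out (PBS), enzyme was 10 ug/ml and benzylamine 40 uM, run 1 h then acid-stopped.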

Assay [2] concerns the target T2, human ether a go-go related gene (hERG) K+ channel (Homo sapiens, UniProt Q12809).
T2 construct: a Chinese Hamster Lung cell line stably expressing the full length hERG channel; expressed in transfected cells; host or cells: Chinese Hamster Lung cell line
The assay is described as follows: hERG assay, IonWorks patch clamp electrophysiology. Format: cell-based. Conditions: Chinese Hamster Lung cell line stably expressing hERG; max assay concentration 11 uM. Here is the method:
Compounds of the invention were tested for inhibition of the human ether a go-go related gene (hERG) K^+ channel using IonWorks patch clamp electrophysiology. 8 Point concentration-response curves were generated on two occasions using 3-fold serial dilutions from the maximum assay concentration (11 uM). Electrophysiological recordings were made from a Chinese Hamster Lung cell line stably expressing the full length hERG channel. Single cell ion currents were measured in the perforated patch clamp configuration (100 ug/mL amphoterocin) at room temperature using an IonWorks Quattro instrument. The internal solution contained 140 mM KCl, 1 mM MgCl2, 1 mM EGTA and 20 mM HEPES and was buffered to pH 7.3. The external solution contained 138 mM NaCl, 2.7 mM KCl, 0.9 mM CaCl2, 0.5 mM MgCl2, 8 mM Na2HPO4 and 1.5 mM KH2PO4, and was buffered to pH 7.3. […] This sequence was repeated 5 times at a frequency of 0.25 Hz. Currents were measured from the tail step at the 5th pulse, and referenced to the holding current. Compounds were incubated for 6-7 min prior to a second measurement of the hERG signal using an identical pulse train. […] A control compound (quinidine) was used (see Table 20 below).
In general terms: hERG is a cardiac potassium channel; its block is linked to QT prolongation.

Each structure is given as a SMILES string. Counter-ions that a name gives are not always drawn.

T2 sequence (Q12809 whole entry): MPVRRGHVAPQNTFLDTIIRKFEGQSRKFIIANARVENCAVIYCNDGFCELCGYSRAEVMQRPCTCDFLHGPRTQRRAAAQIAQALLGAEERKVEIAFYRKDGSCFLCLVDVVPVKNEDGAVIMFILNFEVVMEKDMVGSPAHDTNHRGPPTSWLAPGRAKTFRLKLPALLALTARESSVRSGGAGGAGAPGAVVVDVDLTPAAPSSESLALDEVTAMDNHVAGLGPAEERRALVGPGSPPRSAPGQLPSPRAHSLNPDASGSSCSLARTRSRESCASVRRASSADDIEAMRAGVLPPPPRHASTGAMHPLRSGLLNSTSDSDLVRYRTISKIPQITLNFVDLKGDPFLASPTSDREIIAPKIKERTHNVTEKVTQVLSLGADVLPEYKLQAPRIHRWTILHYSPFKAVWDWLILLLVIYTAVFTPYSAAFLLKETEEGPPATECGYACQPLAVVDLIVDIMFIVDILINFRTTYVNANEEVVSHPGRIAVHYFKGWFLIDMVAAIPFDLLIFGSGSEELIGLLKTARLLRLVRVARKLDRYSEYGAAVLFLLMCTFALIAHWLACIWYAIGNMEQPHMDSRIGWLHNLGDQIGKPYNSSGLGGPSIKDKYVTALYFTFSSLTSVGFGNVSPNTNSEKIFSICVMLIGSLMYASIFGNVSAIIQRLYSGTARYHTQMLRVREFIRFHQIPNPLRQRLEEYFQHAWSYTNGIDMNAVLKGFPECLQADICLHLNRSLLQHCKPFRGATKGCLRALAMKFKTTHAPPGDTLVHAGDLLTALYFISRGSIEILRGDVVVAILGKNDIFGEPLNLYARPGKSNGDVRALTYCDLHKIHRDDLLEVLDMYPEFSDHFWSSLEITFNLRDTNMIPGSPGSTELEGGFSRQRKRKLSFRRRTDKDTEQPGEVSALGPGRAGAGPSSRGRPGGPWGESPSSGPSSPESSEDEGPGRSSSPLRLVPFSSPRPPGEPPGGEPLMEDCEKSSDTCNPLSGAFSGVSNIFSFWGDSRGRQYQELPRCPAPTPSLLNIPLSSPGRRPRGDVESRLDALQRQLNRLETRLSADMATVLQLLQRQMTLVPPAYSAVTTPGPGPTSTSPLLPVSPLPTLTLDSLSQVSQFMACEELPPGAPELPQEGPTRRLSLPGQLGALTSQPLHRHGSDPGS

Take `Clc1ccc(-n2c(-c3ccncc3)nc3ccncc32)cc1` [Example 2, 4-[3-(4-Chlorophenyl)-3H-imidazo[4,5-c]pyridin-2-yl] pyridine]: the values for the IC50 in assay [1] and in assay [2] were 200 to 1200 nM and greater than 10000 nM, respectively.

Take `Clc1ccc(-n2c(-c3ccc(CN4CCOCC4)nc3)nc3ccncc32)cc1` [Example 3, 4-({5-[3-(4-Chlorophenyl)-3H-imidazo[4,5-c]pyridin-2-yl]pyridin-2-yl}methyl) morpholine]: the 50% inhibitory concentration (IC50) – broadly, the concentration at which inhibition is half-maximal – in assay [1] is 50 to 200 nM; in assay [2] it was greater than 10000 nM.

Take `Clc1ccc(-n2c(-c3ccc(N4CCOCC4)nn3)nc3ccncc32)cc1` [Example 4, 4-{6-[3-(4-Chlorophenyl)-3H-imidazo[4,5-c]pyridin-2-yl]pyridazin-3-yl}morpholine]: the IC50 in assay [1] is less than 50 nM; in assay [2] it was 1000 to 10000 nM.

With `Clc1ccc(-n2c(-c3cnc(NC4CCOCC4)nc3)nc3ccncc32)cc1` [Example 11, 5-[3-(4-Chlorophenyl)-3H-imidazo[4,5-c]pyridin-2-yl]-N-(oxan-4-yl)pyrimidin-2-amine; bis(trifluoroacetic acid)], the figures for the IC50 in assay [1] and in assay [2] were less than 50 nM and greater than 10000 nM, respectively.

Take `O=C1CN(c2ncc(-c3nc4ccncc4n3-c3ccc(F)cc3)cn2)CCN1` [Example 12, 4-{5-[3-(4-Fluorophenyl)-3H-imidazo[4,5-c]pyridin-2-yl]pyrimidin-2-yl}piperazin-2-one]: the values for the IC50 in assay [1] and in assay [2] were 50 to 200 nM and greater than 10000 nM, respectively.

As for `O=C1CN(c2ncc(-c3nc4ccncc4n3-c3ccc(Cl)cc3)cn2)CCN1` [Example 13, 4-{5-[3-(4-Chlorophenyl)-3H-imidazo[4,5-c]pyridin-2-yl]pyrimidin-2-yl}piperazin-2-one], the results for the half-maximal inhibitory concentration (IC50) in assay [1] and in assay [2] were less than 50 nM and greater than 10000 nM, respectively.

In the case of `Clc1ccc(-n2c(-c3cnc(N4CCNCC4)o3)nc3ccncc32)cc1` [Example 18, 1-{5-[3-(4-Chlorophenyl)-3H-imidazo[4,5-c]pyridin-2-yl]-1,3-oxazol-2-yl}piperazine dihydrochloride], the 50% inhibitory concentration (IC50) in assay [1] was 50 to 200 nM; in assay [2], greater than 10000 nM.

For the molecule `Fc1ccc(-n2c(-c3cnc(NC4CCOCC4)nc3)nc3ccncc32)cc1` [Example 20, 5-[3-(4-Fluorophenyl)-3H-imidazo[4,5-c]pyridin-2-yl]-N-(oxan-4-yl)pyrimidin-2-amine], the figures for the half-inhibitory concentration (IC50) in assay [1] and in assay [2] were 50 to 200 nM and greater than 10000 nM, respectively.

Regarding `Cc1cc(N2CCOCC2)ncc1-c1nc2ccncc2n1-c1ccc(F)cc1` [Example 21, 4-{5-[3-(4-Fluorophenyl)-3H-imidazo[4,5-c]pyridin-2-yl]-4-methylpyridin-2-yl}morpholine], the IC50 in assay [1] was less than 50 nM; in assay [2], greater than 10000 nM.

On to `c1ccc(-n2c(-c3cnc(N4CCOCC4)nc3)cc3ccncc32)cc1` [Example 131, 4-(5-{1-Phenyl-1H-pyrrolo[2,3-c]pyridin-2-yl}pyrimidin-2-yl)morpholine], for which, in assay [2], the IC50 fell in the range of 1000 to 10000 nM.

With `Clc1ccc(-n2c(-c3cncc(Cl)c3)cc3ccncc32)cc1` [Example 150, 3-Chloro-5-[1-(4-chlorophenyl)-1H-pyrrolo[2,3-c]pyridin-2-yl]pyridine], the concentration for half-maximal inhibition (IC50) in assay [1] lay within 50 to 200 nM.

On to `Clc1ccc(-n2c(-c3ccc(-n4cccn4)nc3)cc3ccncc32)cc1` [Example 151, 5-[1-(4-Chlorophenyl)-1H-pyrrolo[2,3-c]pyridin-2-yl]-2-(1H-pyrazol-1-yl)pyridine; bis(trifluoroacetic acid)], for which the concentration for half-maximal inhibition (IC50) in assay [1] is 50 to 200 nM.

As to `Cc1cnccc1-c1cc2ccncc2n1-c1ccc(Cl)cc1` [Example 154, 4-[1-(4-Chlorophenyl)-1H-pyrrolo[2,3-c]pyridin-2-yl]-3-methylpyridine], in assay [1], the half-maximal inhibitory concentration (IC50) is less than 50 nM.

In the case of `O=c1cc(-c2cc3ccncc3n2-c2ccccc2)ccn1C1CC1` [Example 155, 1-Cyclopropyl-4-{1-phenyl-1H-pyrrolo[2,3-c]pyridin-2-yl}-1,2-dihydropyridin-2-one], the IC50 in assay [1] lay within 200 to 1200 nM.

The values above are taken from US20150258101A1 (Proximagen Limited, priority 2014, published 2015).
